According to patent US5650428A, “Arylsulfonamide derivative and pharmaceutical compositions and use thereof” (NKK Corporation, priority 1993, dated 1997):

Key:
[1] = system: rat platelet; assay: Inhibitory activity of aggregation in rat platelet; type: cell-based; settings: rat platelet rich plasma, arachidonic acid (final concentration 0.5 mM) as inducer; read-out: C: Inhibitory activity of aggregation in rat platelet (IC50; μM)
In short: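 Platelet-rich plasma was prepared from citrated (0.38% final) rat abdominal arterial blood and preincubated 1 min at 37°C. Compound was added 2 min before arachidonic acid (0.5 mM final). Light transmission change was recorded for 5 min.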

[2] = target: T1, isolated rat artery (thoracic aorta) (Rattus norvegicus, UniProt P34978); assay: Inhibitory activity of vasoconstriction of isolated rat artery; type: cell-based; settings: pA2; rat thoracic aorta ring preparation, 37° C.; read-out: B: Inhibitory activity of vasoconstriction (rat artery) (pA2) (converted)
T1 construct: the thoracic aorta was quickly removed; from tissue; host or cells: thoracic aorta rings of male Wistar rats, endothelium 'gently cleaned'
T1 sequence (P34978 1-341): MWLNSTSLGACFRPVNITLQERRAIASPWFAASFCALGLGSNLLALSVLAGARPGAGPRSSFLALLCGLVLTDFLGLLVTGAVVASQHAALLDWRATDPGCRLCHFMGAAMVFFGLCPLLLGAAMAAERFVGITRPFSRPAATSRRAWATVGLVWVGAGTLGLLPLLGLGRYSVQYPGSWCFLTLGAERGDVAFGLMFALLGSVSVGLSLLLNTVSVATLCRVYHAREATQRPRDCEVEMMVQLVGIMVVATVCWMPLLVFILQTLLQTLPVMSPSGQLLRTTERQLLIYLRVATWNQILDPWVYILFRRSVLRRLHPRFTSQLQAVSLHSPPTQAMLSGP
Experimental: (2) Inhibitory Activity of Vasoconstriction of Isolated Rat Artery
Rats (Wistar; male; body weight=250-300 g) were stunned by a blow to the head and exsanguinated. Then, the thoracic aorta was quickly removed, and the connective tissue and the endothelium were gently cleaned and then ring preparation was cut. The preparations were suspended in a 25 ml organ bath which was maintained at 37° C. under an aeration of 95% O2 -5% CO2. An initial tension of 1.5 g was applied and preincubation was performed for 60 minutes. The organ bath was filled with Krebs-Henselait solution (NaCl=118, KCl=4.7, CaCl2 2.55, MgSO4 =1.18, KH2 PO4 =1.18, NaHCO3 =24.88, glucose=11.1). The constriction of the samples was ionotropicaly measured using an isometric transducer (UL-10GR, Minebea) and an amplifier (6M92, NEC SANEI) and recorded by a recticorder (RECTI-HORIZ-8K, NEC SANEI).

[3] = target: T2, thromboxane A2 (TxA2) receptor (Cavia porcellus, UniProt A0A286Y4I8); assay: TxA2 antagonist action by binding assay; settings: washed guinea pig platelets, 1 nM [3H]-SQ29,548, 45 minutes at 25° C.
T2 construct: to obtain washed platelets; from tissue; host or cells: washed platelets of male Hartley guinea pigs
T2 sequence (A0A286Y4I8 1-347): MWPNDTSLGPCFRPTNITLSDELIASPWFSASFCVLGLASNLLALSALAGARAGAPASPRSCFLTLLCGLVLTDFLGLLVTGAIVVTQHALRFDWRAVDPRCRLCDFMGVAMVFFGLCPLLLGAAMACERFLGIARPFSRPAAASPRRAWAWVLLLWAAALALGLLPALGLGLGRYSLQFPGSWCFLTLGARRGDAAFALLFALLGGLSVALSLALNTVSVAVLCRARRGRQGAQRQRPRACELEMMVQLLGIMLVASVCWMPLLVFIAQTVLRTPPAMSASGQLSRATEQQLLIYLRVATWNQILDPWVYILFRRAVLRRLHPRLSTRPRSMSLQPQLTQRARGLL
In short: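 Washed platelets from male Hartley guinea pigs, 4×10^8 cells/ml, were incubated with test compound and a labelled ligand for 45 minutes at 25 °C. Bound radioactivity was collected by GF/B filtration and scintillation counting; IC50 came from binding/control-binding ratio.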

SMILES	IC50 [1]	Kb [2]	IC50 [3]
O=C(O)c1ccc(NC(=O)C(COC2CCCCO2)NS(=O)(=O)c2ccc(Cl)cc2)cc1 (racemic) [Example 40, (RS)-N-(4-carboxyphenyl)-2-(4-chlorobenzenesulfonylamino)-3-(tetrahydropyran-2-yloxy)propanamide]	0.52 µM	28.8 nM	0.5 µM
O=C(O)Cc1ccc(NC(=O)C(COC2CCCCO2)NS(=O)(=O)c2ccc(Cl)cc2)cc1 (racemic) [Example 41, (RS)-N-(4-(carboxymethyl)phenyl)-2-(4-chlorobenzenesulfonylamino)-3-(tetrahydropyran-2-yloxy)propanamide]	0.18 µM	6.92 nM	0.057 µM
O=C(O)CCc1ccc(NC(=O)C(COC2CCCCO2)NS(=O)(=O)c2ccc(Cl)cc2)cc1 (racemic) [Example 42, (RS)-N-(4-(2-carboxyethyl)phenyl)-2-(4-chlorobenzenesulfonylamino)-3-(tetrahydropyran-2-yloxy)propanamide]	0.54 µM	12.9 nM	0.088 µM
O=C(O)c1cccc(NC(=O)C(COC2CCCCO2)NS(=O)(=O)c2ccc(Cl)cc2)c1 (racemic) [Example 44, (RS)-N-(3-carboxyphenyl)-2-(4-chlorobenzenesulfonylamino)-3-(tetrahydropyran-2-yloxy) propanamide]	0.3 µM	32.4 nM	0.4 µM
O=C(O)Cc1ccc(NC(=O)C(COC2CCCCO2)NS(=O)(=O)c2ccc(Br)cc2)cc1 (racemic) [Example 54, (RS)-2-(4-bromobenzenesulfonylamino)-N-(4-(carboxymethyl)phenyl)-3-(tetrahydropyran-2-yloxy)propanamide]	0.17 µM	5.89 nM	0.033 µM
O=C(O)Cc1ccc(NC(=O)C(COC2CCCCO2)NS(=O)(=O)c2ccc(I)cc2)cc1 (racemic) [Example 55, (RS)-N-(4-(carboxymethyl)phenyl)-2-(4-iodobenzenesulfonylamino)-3-(tetrahydropyran-2-yloxy)propanamide]	0.53 µM	3.8 nM	0.016 µM
O=C(O)COc1ccc(CCNS(=O)(=O)c2ccc(Cl)cc2)cc1 [Control Compound, 4-[2-(4-chlorobenzenesulfonylamino)ethyl]-phenoxy acetic acid, reference compound]	1.7 µM	126 nM	2 µM
O=C(O)c1ccc(NC(=O)[C@H](COC2CCCCO2)NS(=O)(=O)c2ccc(Cl)cc2)cc1 (stereo partly drawn) [Example 39, (S)-N-(4-carboxyphenyl)-2-(4-chlorobenzenesulfonylamino)-3-(tetrahydropyran-2-yloxy)propanamide]	–	12.6 nM	0.2 µM
O=C(O)c1cccc(NC(=O)[C@H](COC2CCCCO2)NS(=O)(=O)c2ccc(Cl)cc2)c1 (stereo partly drawn) [Example 43, (S)-N-(3-carboxyphenyl)-2-(4-chlorobenzenesulfonylamino)-3-(tetrahydropyran-2-yloxy)propanamide]	–	41.7 nM	–
